Laboratory results from the CheMixHub ionic liquid set.

Assay: xn = mol fraction of the nth substance listed
Settings: 298.15 K, 101 kPa

CCOC(C)=O + CCO + CCCC[n+]1ccn(C)c1.O=S(=O)([N-]S(=O)(=O)C(F)(F)F)C(F)(F)F
Settings	viscosity [mPa·s]
x2 = 0.0086, x1 = 0.9023	0.967
x2 = 0.0173, x1 = 0.804	1.818
x2 = 0.0216, x1 = 0.8938	0.982
x2 = 0.026, x1 = 0.7051	3.29
x2 = 0.0299, x1 = 0.9014	0.806
x2 = 0.035, x1 = 0.6029	5.36
x2 = 0.0405, x1 = 0.8009	1.644
x2 = 0.0422, x1 = 0.521	7.65
x2 = 0.045, x1 = 0.8887	0.803
x2 = 0.0534, x1 = 0.3936	12.87
x2 = 0.0549, x1 = 0.8911	0.714
x2 = 0.0571, x1 = 0.9051	0.658
x2 = 0.0615, x1 = 0.7971	1.44
x2 = 0.0622, x1 = 0.2942	17.63
x2 = 0.0632, x1 = 0.6895	2.89
x2 = 0.0688, x1 = 0.2189	22.5
x2 = 0.0754, x1 = 0.1444	28.1
x2 = 0.0777, x1 = 0.6181	4.09
x2 = 0.0778, x1 = 0.1168	30.1
x2 = 0.08, x1 = 0.8998	0.526
x2 = 0.0815, x1 = 0.0753	34.1
x2 = 0.0882, x1 = 0.7818	1.308
x2 = 0.0925, x1 = 0.6947	2.35
x2 = 0.0953, x1 = 0.8644	0.656
x2 = 0.0984, x1 = 0.5164	6.16
x2 = 0.0997, x1 = 0.8023	1.05
x2 = 0.1177, x1 = 0.6116	3.32
x2 = 0.1191, x1 = 0.802	0.89
x2 = 0.1234, x1 = 0.3937	9.59
x2 = 0.125, x1 = 0.6908	1.976
x2 = 0.1404, x1 = 0.3101	13.03
x2 = 0.1414, x1 = 0.7989	0.789
x2 = 0.1455, x1 = 0.5201	4.81
x2 = 0.1477, x1 = 0.707	1.521
x2 = 0.1591, x1 = 0.8229	0.523
x2 = 0.1604, x1 = 0.6032	2.8
x2 = 0.1639, x1 = 0.1949	18.29
x2 = 0.1658, x1 = 0.7923	0.681
x2 = 0.1735, x1 = 0.1475	21.3
x2 = 0.183, x1 = 0.6956	1.289
x2 = 0.1841, x1 = 0.0957	24.4
x2 = 0.1843, x1 = 0.392	7.6
x2 = 0.1948, x1 = 0.043	28.1
x2 = 0.1978, x1 = 0.5106	3.97
x2 = 0.1995, x1 = 0.6042	2.19
x2 = 0.2059, x1 = 0.7708	0.557
x2 = 0.213, x1 = 0.2974	10.46
x2 = 0.2132, x1 = 0.6967	1.026
x2 = 0.2314, x1 = 0.6152	1.684
x2 = 0.2434, x1 = 0.1969	14.03
x2 = 0.2448, x1 = 0.6933	0.829
x2 = 0.2449, x1 = 0.394	5.82
x2 = 0.247, x1 = 0.51	3.05
x2 = 0.2609, x1 = 0.1391	16.65
x2 = 0.2729, x1 = 0.0996	18.5
x2 = 0.2797, x1 = 0.6021	1.324
x2 = 0.2857, x1 = 0.2933	8.02
x2 = 0.2868, x1 = 0.0538	21
x2 = 0.2924, x1 = 0.6745	0.658
x2 = 0.2972, x1 = 0.5057	2.33
x2 = 0.3062, x1 = 0.3928	4.4
x2 = 0.3201, x1 = 0.5989	1.006
x2 = 0.3236, x1 = 0.1993	10.53
x2 = 0.3448, x1 = 0.147	12.41
x2 = 0.3553, x1 = 0.4946	1.727
x2 = 0.356, x1 = 0.294	5.97
x2 = 0.3662, x1 = 0.094	14.33
x2 = 0.3681, x1 = 0.3878	3.28
x2 = 0.3736, x1 = 0.5842	0.736
x2 = 0.3833, x1 = 0.0516	16.14
x2 = 0.3974, x1 = 0.502	1.235
x2 = 0.4042, x1 = 0.1983	7.96
x2 = 0.4237, x1 = 0.3973	2.32
x2 = 0.4281, x1 = 0.288	4.46
x2 = 0.4291, x1 = 0.149	9.07
x2 = 0.4547, x1 = 0.0982	10.36
x2 = 0.4684, x1 = 0.4786	0.869
x2 = 0.4784, x1 = 0.0511	11.87
x2 = 0.4799, x1 = 0.3986	1.585
x2 = 0.4832, x1 = 0.1963	5.71
x2 = 0.508, x1 = 0.155	6.45
x2 = 0.5162, x1 = 0.2658	3.24
x2 = 0.5407, x1 = 0.1007	7.42
x2 = 0.5473, x1 = 0.3908	1.023
x2 = 0.5621, x1 = 0.2957	2.03
x2 = 0.5657, x1 = 0.1954	3.92
x2 = 0.574, x1 = 0.0452	8.7
x2 = 0.598, x1 = 0.1495	4.39
x2 = 0.6293, x1 = 0.2115	2.49
x2 = 0.6333, x1 = 0.0992	5.1
x2 = 0.6413, x1 = 0.2861	1.252
x2 = 0.6634, x1 = 0.0564	5.74
x2 = 0.6743, x1 = 0.1551	2.84
x2 = 0.7038, x1 = 0.1181	3.11
x2 = 0.7282, x1 = 0.1894	1.533
x2 = 0.7476, x1 = 0.0632	3.67
x2 = 0.7565, x1 = 0.1579	1.636
x2 = 0.8052, x1 = 0.1037	1.848
x2 = 0.8459, x1 = 0.0584	2.09
